Measurements taken from the NIST ThermoML archive (doi:10.1016/j.fluid.2015.07.030).

Experiment: refractive index (other wavelength) (dimensionless); xn = mol fraction of the nth substance listed
Details: 95.99 kPa, Liquid, Standard Abbe refractometry

OCCOCCOCCO [triethylene glycol] + O
Details | refractive index
308.15 K, Wavelength=632.8 nm, x2 = 0.9391 | 1.37329
308.15 K, Wavelength=632.8 nm, x2 = 0.951 | 1.36686
308.15 K, Wavelength=632.8 nm, x2 = 0.9599 | 1.36065
308.15 K, Wavelength=632.8 nm, x2 = 0.9708 | 1.35307
308.15 K, Wavelength=632.8 nm, x2 = 0.979 | 1.34835
308.15 K, Wavelength=632.8 nm, x2 = 0.9867 | 1.34205
308.15 K, Wavelength=632.8 nm, x2 = 0.9936 | 1.33605
308.15 K, Wavelength=644 nm, x2 = 0 | 1.44909
308.15 K, Wavelength=644 nm, x2 = 0.1056 | 1.44778
308.15 K, Wavelength=644 nm, x2 = 0.2069 | 1.44621
308.15 K, Wavelength=644 nm, x2 = 0.3104 | 1.44392
308.15 K, Wavelength=644 nm, x2 = 0.4844 | 1.43913
308.15 K, Wavelength=644 nm, x2 = 0.5016 | 1.43819
308.15 K, Wavelength=644 nm, x2 = 0.5952 | 1.43167
308.15 K, Wavelength=644 nm, x2 = 0.6016 | 1.43191
308.15 K, Wavelength=644 nm, x2 = 0.6788 | 1.42543
308.15 K, Wavelength=644 nm, x2 = 0.7835 | 1.41701
308.15 K, Wavelength=644 nm, x2 = 0.8184 | 1.41118
308.15 K, Wavelength=644 nm, x2 = 0.8473 | 1.4049
308.15 K, Wavelength=644 nm, x2 = 0.8719 | 1.39819
308.15 K, Wavelength=644 nm, x2 = 0.8926 | 1.39069
308.15 K, Wavelength=644 nm, x2 = 0.9106 | 1.38534
308.15 K, Wavelength=644 nm, x2 = 0.9254 | 1.37569
308.15 K, Wavelength=644 nm, x2 = 0.9303 | 1.37659
308.15 K, Wavelength=644 nm, x2 = 0.9391 | 1.37297
308.15 K, Wavelength=644 nm, x2 = 0.951 | 1.36654
308.15 K, Wavelength=644 nm, x2 = 0.9599 | 1.36033
308.15 K, Wavelength=644 nm, x2 = 0.9708 | 1.35275
308.15 K, Wavelength=644 nm, x2 = 0.979 | 1.34803
308.15 K, Wavelength=644 nm, x2 = 0.9867 | 1.34175
308.15 K, Wavelength=644 nm, x2 = 0.9936 | 1.33576
308.15 K, Wavelength=706.5 nm, x2 = 0 | 1.44737
308.15 K, Wavelength=706.5 nm, x2 = 0.1056 | 1.44608
308.15 K, Wavelength=706.5 nm, x2 = 0.2069 | 1.4451
308.15 K, Wavelength=706.5 nm, x2 = 0.3104 | 1.44202
308.15 K, Wavelength=706.5 nm, x2 = 0.4844 | 1.43745
308.15 K, Wavelength=706.5 nm, x2 = 0.5016 | 1.43653
308.15 K, Wavelength=706.5 nm, x2 = 0.5952 | 1.42998
308.15 K, Wavelength=706.5 nm, x2 = 0.6016 | 1.43023
308.15 K, Wavelength=706.5 nm, x2 = 0.6788 | 1.42374
308.15 K, Wavelength=706.5 nm, x2 = 0.7835 | 1.41536
308.15 K, Wavelength=706.5 nm, x2 = 0.8184 | 1.40951
308.15 K, Wavelength=706.5 nm, x2 = 0.8473 | 1.40326
308.15 K, Wavelength=706.5 nm, x2 = 0.8719 | 1.39653
308.15 K, Wavelength=706.5 nm, x2 = 0.8926 | 1.38904
308.15 K, Wavelength=706.5 nm, x2 = 0.9106 | 1.38371
308.15 K, Wavelength=706.5 nm, x2 = 0.9254 | 1.37409
308.15 K, Wavelength=706.5 nm, x2 = 0.9303 | 1.37498
308.15 K, Wavelength=706.5 nm, x2 = 0.9391 | 1.37137
308.15 K, Wavelength=706.5 nm, x2 = 0.951 | 1.36496
308.15 K, Wavelength=706.5 nm, x2 = 0.9599 | 1.35875
308.15 K, Wavelength=706.5 nm, x2 = 0.9708 | 1.35119
308.15 K, Wavelength=706.5 nm, x2 = 0.979 | 1.34647
308.15 K, Wavelength=706.5 nm, x2 = 0.9867 | 1.34023
308.15 K, Wavelength=706.5 nm, x2 = 0.9936 | 1.33425
313.15 K, Wavelength=404.7 nm, x2 = 0 | 1.46216
313.15 K, Wavelength=404.7 nm, x2 = 0.1056 | 1.46096
313.15 K, Wavelength=404.7 nm, x2 = 0.2069 | 1.45931
313.15 K, Wavelength=404.7 nm, x2 = 0.3104 | 1.45682
313.15 K, Wavelength=404.7 nm, x2 = 0.4844 | 1.45391
313.15 K, Wavelength=404.7 nm, x2 = 0.5016 | 1.45102
313.15 K, Wavelength=404.7 nm, x2 = 0.5952 | 1.44431
313.15 K, Wavelength=404.7 nm, x2 = 0.6016 | 1.44384
313.15 K, Wavelength=404.7 nm, x2 = 0.6788 | 1.43802
313.15 K, Wavelength=404.7 nm, x2 = 0.7835 | 1.42903
313.15 K, Wavelength=404.7 nm, x2 = 0.8184 | 1.42287
313.15 K, Wavelength=404.7 nm, x2 = 0.8473 | 1.4172
313.15 K, Wavelength=404.7 nm, x2 = 0.8719 | 1.41026
313.15 K, Wavelength=404.7 nm, x2 = 0.8926 | 1.40276
313.15 K, Wavelength=404.7 nm, x2 = 0.9106 | 1.39726
313.15 K, Wavelength=404.7 nm, x2 = 0.9254 | 1.38778
313.15 K, Wavelength=404.7 nm, x2 = 0.9303 | 1.38834
313.15 K, Wavelength=404.7 nm, x2 = 0.9391 | 1.38513
313.15 K, Wavelength=404.7 nm, x2 = 0.951 | 1.37841
313.15 K, Wavelength=404.7 nm, x2 = 0.9599 | 1.37093
313.15 K, Wavelength=404.7 nm, x2 = 0.9708 | 1.36388
313.15 K, Wavelength=404.7 nm, x2 = 0.979 | 1.35918
313.15 K, Wavelength=404.7 nm, x2 = 0.9867 | 1.35221
313.15 K, Wavelength=404.7 nm, x2 = 0.9936 | 1.34633
313.15 K, Wavelength=435.8 nm, x2 = 0 | 1.45863
313.15 K, Wavelength=435.8 nm, x2 = 0.1056 | 1.45744
313.15 K, Wavelength=435.8 nm, x2 = 0.2069 | 1.45583
313.15 K, Wavelength=435.8 nm, x2 = 0.3104 | 1.45335
313.15 K, Wavelength=435.8 nm, x2 = 0.4844 | 1.45049
313.15 K, Wavelength=435.8 nm, x2 = 0.5016 | 1.44762
313.15 K, Wavelength=435.8 nm, x2 = 0.5952 | 1.44094
313.15 K, Wavelength=435.8 nm, x2 = 0.6016 | 1.44387
313.15 K, Wavelength=435.8 nm, x2 = 0.6788 | 1.43469
313.15 K, Wavelength=435.8 nm, x2 = 0.7835 | 1.42572
313.15 K, Wavelength=435.8 nm, x2 = 0.8184 | 1.41965
313.15 K, Wavelength=435.8 nm, x2 = 0.8473 | 1.41405
313.15 K, Wavelength=435.8 nm, x2 = 0.8719 | 1.40715
313.15 K, Wavelength=435.8 nm, x2 = 0.8926 | 1.39972
313.15 K, Wavelength=435.8 nm, x2 = 0.9254 | 1.38484
313.15 K, Wavelength=435.8 nm, x2 = 0.9303 | 1.38538
313.15 K, Wavelength=435.8 nm, x2 = 0.9391 | 1.38218
313.15 K, Wavelength=435.8 nm, x2 = 0.951 | 1.37555
313.15 K, Wavelength=435.8 nm, x2 = 0.9599 | 1.36813
313.15 K, Wavelength=435.8 nm, x2 = 0.9708 | 1.36116
313.15 K, Wavelength=435.8 nm, x2 = 0.979 | 1.3565
313.15 K, Wavelength=435.8 nm, x2 = 0.9867 | 1.34957
313.15 K, Wavelength=435.8 nm, x2 = 0.9936 | 1.34376
313.15 K, Wavelength=486.1 nm, x2 = 0 | 1.45448
313.15 K, Wavelength=486.1 nm, x2 = 0.1056 | 1.4533
313.15 K, Wavelength=486.1 nm, x2 = 0.2069 | 1.45169
313.15 K, Wavelength=486.1 nm, x2 = 0.3104 | 1.44921
313.15 K, Wavelength=486.1 nm, x2 = 0.4844 | 1.44639
313.15 K, Wavelength=486.1 nm, x2 = 0.5016 | 1.44358
313.15 K, Wavelength=486.1 nm, x2 = 0.5952 | 1.43703
313.15 K, Wavelength=486.1 nm, x2 = 0.6016 | 1.43615
313.15 K, Wavelength=486.1 nm, x2 = 0.6788 | 1.43086
313.15 K, Wavelength=486.1 nm, x2 = 0.7835 | 1.42205
313.15 K, Wavelength=486.1 nm, x2 = 0.8184 | 1.41597
313.15 K, Wavelength=486.1 nm, x2 = 0.8473 | 1.41039
313.15 K, Wavelength=486.1 nm, x2 = 0.8719 | 1.40359
313.15 K, Wavelength=486.1 nm, x2 = 0.8926 | 1.39624
313.15 K, Wavelength=486.1 nm, x2 = 0.9106 | 1.39088
313.15 K, Wavelength=486.1 nm, x2 = 0.9254 | 1.38148
313.15 K, Wavelength=486.1 nm, x2 = 0.9303 | 1.38203
313.15 K, Wavelength=486.1 nm, x2 = 0.9391 | 1.37884
313.15 K, Wavelength=486.1 nm, x2 = 0.951 | 1.37228
313.15 K, Wavelength=486.1 nm, x2 = 0.9599 | 1.36494
313.15 K, Wavelength=486.1 nm, x2 = 0.9708 | 1.35801
313.15 K, Wavelength=486.1 nm, x2 = 0.979 | 1.35339
313.15 K, Wavelength=486.1 nm, x2 = 0.9867 | 1.34651
313.15 K, Wavelength=486.1 nm, x2 = 0.9936 | 1.34073
313.15 K, Wavelength=546.1 nm, x2 = 0 | 1.45106
313.15 K, Wavelength=546.1 nm, x2 = 0.1056 | 1.4499
313.15 K, Wavelength=546.1 nm, x2 = 0.2069 | 1.44831
313.15 K, Wavelength=546.1 nm, x2 = 0.3104 | 1.44581
313.15 K, Wavelength=546.1 nm, x2 = 0.4844 | 1.44305
313.15 K, Wavelength=546.1 nm, x2 = 0.5016 | 1.44028
313.15 K, Wavelength=546.1 nm, x2 = 0.5952 | 1.43376
313.15 K, Wavelength=546.1 nm, x2 = 0.6016 | 1.43304
313.15 K, Wavelength=546.1 nm, x2 = 0.6788 | 1.42768
